{"source": "patent US10532053B2", "about": "“Histone deacetylase inhibitor, and preparation method and use thereof” (GUANGDONG ZHONGSHENG PHARMACEUTICAL CO., LTD, priority 2015, dated 2020)", "key": {"Colon cancer HCT116": {"tested_on": "Colon cancer HCT116", "assay": "Cell proliferative activity (MTT / cck-8)", "type": "cell-based", "settings": "Homo sapiens, HCT-116, read-out: Half-Inhibitory Concentration IC50 HCT116"}, "HDAC3": {"target": "HDAC3 (Homo sapiens, UniProt O15379)", "sequence (O15379 whole entry)": "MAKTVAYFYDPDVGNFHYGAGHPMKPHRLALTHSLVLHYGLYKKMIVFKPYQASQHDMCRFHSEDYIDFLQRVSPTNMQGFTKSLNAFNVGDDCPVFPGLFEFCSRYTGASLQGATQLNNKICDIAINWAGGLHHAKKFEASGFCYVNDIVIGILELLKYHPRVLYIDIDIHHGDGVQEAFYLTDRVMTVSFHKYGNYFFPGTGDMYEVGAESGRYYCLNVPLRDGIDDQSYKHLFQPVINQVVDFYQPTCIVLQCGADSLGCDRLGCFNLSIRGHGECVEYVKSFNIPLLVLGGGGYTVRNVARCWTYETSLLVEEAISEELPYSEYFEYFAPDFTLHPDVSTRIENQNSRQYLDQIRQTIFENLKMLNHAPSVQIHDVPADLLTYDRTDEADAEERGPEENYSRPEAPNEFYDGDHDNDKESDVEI", "sequence (Q9Y618 395-489 partner limits assumed)": "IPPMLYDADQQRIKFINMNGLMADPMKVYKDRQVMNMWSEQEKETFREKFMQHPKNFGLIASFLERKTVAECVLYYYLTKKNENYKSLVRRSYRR", "settings": "read-out: IC50 HDAC3; Table 4, Class I", "method": "The HDAC inhibitory activity was determined by fluorescence-coupled acetylated peptide substrate assay (Lys-Ac-AMC). […] The small molecule compounds of the present invention were prepared by being dissolved in 100% DMSO. HDAC was prepared in a buffer at a certain concentration as an enzyme solution; trypsin and fluorescent group 4-amino-7-coumarin coupled-acetylated peptide (Ac-peptide) substrate were prepared in a buffer at a certain concentration as a substrate solution. The compounds were added into the reaction wells in a 384-well plate at a designed concentration of 10 μM, 1 μM, 0.5 μM, 0.1 μM, 0.05 μM, 0.01 μM, 0.005 μM, 0.001 μM, and 0.00005 μM, respectively, and then 15 μl of the HDAC solution was added into the reaction wells (15 μl of blank buffer to the control well). […] The results were analyzed by GraphPad Prism software and IC50 values were calculated according to the formula: Y=Background Data+(Top Data−Background Data)/(1+10^((Log IC50−X) a curve slope)), where Y: the inhibition rate (%) and X: the concentration of the compound."}}}
{"smiles": "COc1ccc(N(C)c2nc(C)nc3ccccc23)cc1OCCCC(=O)NO", "note": "[III-2, N-hydroxy-4-(2-methoxy-5-(methyl(2-methyl-4-quinazolinyl)amino)phenoxy) butanamide]", "values": [{"measurement": "IC50", "setting": "Colon cancer HCT116", "result": "35 ± 21", "unit": "nM"}, {"measurement": "IC50", "setting": "HDAC3", "result": "439 ± 9", "unit": "nM"}]}
